# Read-outs that look alike come from different tables or passages of the source.
# What was measured:
# intracellular MRSA = assay type: cell-based, Staphylococcus aureus; conditions: for %GFP+ rep 1 / z-scoreMRSA+ rep 1: replicate 1; for %GFP+ rep 2 / z-scoreMRSA+ rep 2: replicate 2; for %GFP+ rep 3 / z-scoreMRSA+ rep 3: replicate 3; for z-scoreMRSA+ mean: mean of 3 replicates
# In short: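 HeLa, MRSA-GFP at MOI ~6.8, 1 h infection; gentamicin 30 µg/ml for 15 min; inhibitor plus gentamicin 5 µg/ml overnight, 37°C/5% CO2; triplicate plates; FACS %GFP+ and cell count; hit = z ≤ -2 MRSA+, z ≥ -3 count.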
# HeLa cells = assay: Compound screen by flow cytometry: HeLa cell count as surrogate readout of cell viability (z-scoreHeLa); assay type: cell-based, human
# In short: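 HeLa cells were infected with GFP-MRSA (mean MOI 6.8 ± 4.6) for 1 h, and extracellular bacteria were killed with 30 µg/ml gentamicin. Cells were then incubated overnight with kinase inhibitors in 5 µg/ml gentamicin, in triplicate against DMSO controls. Flow-cytometric cell count served as a viability surrogate, expressed as a plate z-score.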
# [1] = PKIS compound screen raw data, MRSA-infected HeLa cells
# [2] = PKIS compound screen, MRSA-infected HeLa cells
# [3] = PKIS compound screen, Yes/No call
# [4] = PKIS compound screen, Yes/No call (effect without cell death)
# [5] = PKIS compound screen, Yes/No call on z-scoreMRSA+
# [6] = PKIS compounds raw data, MRSA-infected HeLa cells
# [7] = PKIS compound screen raw data, HeLa cell count, replicate 1
# [8] = PKIS compound screen raw data, HeLa cell count, replicate 2
# [9] = PKIS compound screen raw data, HeLa cell count, replicate 3
# [10] = PKIS compound screen, HeLa cell count, mean of 3 replicates
# [11] = PKIS compound screen, HeLa cell count, replicate 1
# [12] = PKIS compound screen, HeLa cell count, replicate 2
# [13] = PKIS compound screen, HeLa cell count, replicate 3
# [14] = PKIS compound screen, Yes/No call on z-scoreHeLa
# [15] = PKIS compounds raw data, replicate 1, HeLa cell count
# [16] = PKIS compounds raw data, replicate 2, HeLa cell count
# [17] = PKIS compounds raw data, replicate 3, HeLa cell count
# [18] = Yes/No: effect without cell death
# [19] = compound screen, MRSA-infected HeLa cells
# [20] = compound screen, HeLa cell count, mean of 3 replicates
# [21] = compound screen, HeLa cell count, replicate 1
# [22] = compound screen, HeLa cell count, replicate 2
# [23] = compound screen, HeLa cell count, replicate 3
Compound,%GFP+ rep 1 (intracellular MRSA; [1]),%GFP+ rep 2 (intracellular MRSA; [1]),%GFP+ rep 3 (intracellular MRSA; [1]),z-scoreMRSA+ mean (intracellular MRSA; [2]),z-scoreMRSA+ rep 1 (intracellular MRSA; [2]),z-scoreMRSA+ rep 2 (intracellular MRSA; [2]),z-scoreMRSA+ rep 3 (intracellular MRSA; [2]),hit (intracellular MRSA; [4]),effect (intracellular MRSA; [5]),%GFP+ rep 1 (intracellular MRSA; [6]),%GFP+ rep 2 (intracellular MRSA; [6]),%GFP+ rep 3 (intracellular MRSA; [6]),cell count rep 1 (HeLa cells; [7]),cell count rep 2 (HeLa cells; [8]),cell count rep 3 (HeLa cells; [9]),z-scoreHeLa mean (HeLa cells; [10]),z-scoreHeLa rep 1 (HeLa cells; [11]),z-scoreHeLa rep 2 (HeLa cells; [12]),z-scoreHeLa rep 3 (HeLa cells; [13]),cell death (HeLa cells; [14]),further results
Cc1cc(NCC(c2ccccc2)c2ccccc2)nc(NCc2ccc(C(F)(F)F)cc2)n1 [GW497681X],20.1%,18.7%,19.8%,-0.08,0.35,-0.19,-0.39,No,No,22.9%,19.6%,20.6%,17665,6230,5782,-2.65,-2.12,-3.27,-2.56,No,"effect (intracellular MRSA; [3]): No; z-scoreMRSA+ mean (intracellular MRSA; PKIS compound screen): -1.09; z-scoreMRSA+ rep 1 (intracellular MRSA; PKIS compound screen): -0.81; z-scoreMRSA+ rep 2 (intracellular MRSA; PKIS compound screen): -1.24; z-scoreMRSA+ rep 3 (intracellular MRSA; PKIS compound screen): -1.24; cell death (HeLa cells; [3]): No; z-scoreHeLa mean (HeLa cells; PKIS compound screen, mean of 3 replicates): -2.45; z-scoreHeLa rep 1 (HeLa cells; PKIS compound screen, replicate 1): -2.37; z-scoreHeLa rep 2 (HeLa cells; PKIS compound screen, replicate 2): -3.07; z-scoreHeLa rep 3 (HeLa cells; PKIS compound screen, replicate 3): -1.91; cell count rep 1 (HeLa cells; [15]): 2106; cell count rep 2 (HeLa cells; [16]): 1381; cell count rep 3 (HeLa cells; [17]): 2577"
COc1cc(C=NNc2ncnc3c2cnn3-c2ccccc2)ccc1O [GW513184X],–,–,–,–,–,–,–,–,–,11.7%,13.3%,13.0%,–,–,–,–,–,–,–,–,effect (intracellular MRSA; Yes/No call from z-scoreMRSA+): No; hit (intracellular MRSA; [18]): No; z-scoreMRSA+ mean (intracellular MRSA; [19]): -0.46; z-scoreMRSA+ rep 1 (intracellular MRSA; [19]): -0.47; z-scoreMRSA+ rep 2 (intracellular MRSA; [19]): -0.0654; z-scoreMRSA+ rep 3 (intracellular MRSA; [19]): -0.85; cell count rep 1 (HeLa cells; [15]): 3697; cell count rep 2 (HeLa cells; [16]): 5698; cell count rep 3 (HeLa cells; [17]): 7463; cell death (HeLa cells; Yes/No call from z-scoreHeLa): No; z-scoreHeLa mean (HeLa cells; [20]): 0.11; z-scoreHeLa rep 1 (HeLa cells; [21]): -0.98; z-scoreHeLa rep 2 (HeLa cells; [22]): 1.08; z-scoreHeLa rep 3 (HeLa cells; [23]): 0.24
Fc1cc(Cl)ccc1Nc1ccnc2cc(I)ccc12 [GW551191X],27.7%,23.2%,23.8%,–,–,–,–,–,–,–,–,–,6255,4849,6828,–,–,–,–,–,effect (intracellular MRSA; Yes/No call from z-scoreMRSA+): No; hit (intracellular MRSA; [18]): No; z-scoreMRSA+ mean (intracellular MRSA; [19]): 0.40; z-scoreMRSA+ rep 1 (intracellular MRSA; [19]): 0.57; z-scoreMRSA+ rep 2 (intracellular MRSA; [19]): 0.14; z-scoreMRSA+ rep 3 (intracellular MRSA; [19]): 0.48; cell death (HeLa cells; Yes/No call from z-scoreHeLa): No; z-scoreHeLa mean (HeLa cells; [20]): 0.93; z-scoreHeLa rep 1 (HeLa cells; [21]): 1.37; z-scoreHeLa rep 2 (HeLa cells; [22]): 0.42; z-scoreHeLa rep 3 (HeLa cells; [23]): 1.00
Cc1ccc(O)cc1Nc1ccnc2cc(-c3ccc(CN4CCCCC4)o3)ccc12 [GW557777X],13.1%,14.2%,14.8%,-1.44,-1.51,-1.30,-1.52,No,No,–,–,–,30186,37597,49690,1.17,1.53,0.52,1.46,No,–
Cc1ccc(O)cc1Nc1ccnc2ccc(S(C)(=O)=O)cc12 [GW559768X],8.1%,10.1%,9.8%,-2.90,-3.11,-2.53,-3.05,Yes,Yes,–,–,–,–,–,–,–,–,–,–,–,cell death (HeLa cells): No; cell count rep 1 (HeLa cells; human): 30393; cell count rep 2 (HeLa cells; human): 35205; cell count rep 3 (HeLa cells; human): 44674; z-scoreHeLa mean (HeLa cells; human): 0.77; z-scoreHeLa rep 1 (HeLa cells; human): 1.56; z-scoreHeLa rep 2 (HeLa cells; human): 0.08; z-scoreHeLa rep 3 (HeLa cells; human): 0.66
Fc1cc(Cl)ccc1Nc1ccnc2cc(-c3ccc(CN4CCSCC4)o3)ccc12 [GW560106X],16.0%,19.0%,19.0%,-0.23,-0.59,0.14,-0.24,No,No,–,–,–,31348,29129,34674,-0.095,1.70,-1.06,-0.93,No,–
